Measured values published in ChEMBL document CHEMBL4725450 (ACS Med Chem Lett, 2020).

Experiments:
[1] = target: T1, Solute carrier family 22 member 12 (Homo sapiens, UniProt Q96S37); assay: Inhibition of URAT1 in human RPTEC assessed as inhibition of [14C]uric acid uptake at 10 uM preincubated for 15 mins followed by [14C]uric acid addition and incubated under shaking condition for 2 hrs by scintillation counter method; format: tissue-based
T1 sequence (Q96S37 whole entry): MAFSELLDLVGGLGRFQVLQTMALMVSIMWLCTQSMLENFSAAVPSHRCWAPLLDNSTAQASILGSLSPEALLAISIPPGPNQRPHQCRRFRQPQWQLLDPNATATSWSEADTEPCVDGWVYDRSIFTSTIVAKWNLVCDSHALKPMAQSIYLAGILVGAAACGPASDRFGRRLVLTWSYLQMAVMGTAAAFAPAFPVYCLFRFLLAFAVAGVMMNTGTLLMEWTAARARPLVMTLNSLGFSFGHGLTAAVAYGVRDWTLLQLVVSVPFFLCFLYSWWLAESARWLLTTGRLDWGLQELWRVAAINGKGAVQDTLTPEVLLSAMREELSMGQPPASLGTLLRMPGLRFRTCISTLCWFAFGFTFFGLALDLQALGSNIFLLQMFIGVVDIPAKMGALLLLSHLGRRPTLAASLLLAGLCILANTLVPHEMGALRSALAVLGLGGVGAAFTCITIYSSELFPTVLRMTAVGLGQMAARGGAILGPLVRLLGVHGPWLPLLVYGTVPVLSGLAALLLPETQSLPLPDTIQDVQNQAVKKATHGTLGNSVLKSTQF

[2] = target: T1, Solute carrier family 22 member 12; assay: Inhibition of URAT1 in human RPTEC assessed as inhibition of [14C]uric acid uptake preincubated for 15 mins followed by [14C]uric acid addition and incubated under shaking condition for 2 hrs by scintillation counter method; format: tissue-based
[3] = system: mitochondrial respiration; assay: Hepatotoxicity in rat liver mitochondria assessed as inhibition of mitochondrial respiration by measuring mitochondrial respiratory control ratio of oxygen consumption in presence of substrate and ADP to rate after complete conversion of ADP to ATP by Clark-type oxygen electrode method; format: toxicity
[4] = Acid dissociation constant, pKa of the compound; format: physicochemical
[5] = system: mitochondrial respiration; assay: Hepatotoxicity in rat liver mitochondria assessed as inhibition of mitochondrial respiration by measuring mitochondrial respiratory control ratio of oxygen consumption in presence of substrate and ADP to rate after complete conversion of ADP to ATP at 100 uM by Clark-type oxygen electrode method; format: toxicity
[6] = Drug excretion rate in rat urine at 3 mg/kg, po measured up to 4 hrs by HPLC analysis; format: ADME, organism-based; settings: read-out: Drug excretion
[7] = Cmax in rat at 3 mg/kg, po by HPLC analysis; format: ADME, organism-based; design: route oral, dose 3 mg/kg; settings: in vivo
[8] = target: T1, Solute carrier family 22 member 12; assay: Inhibition of human URAT1 expressed in Xenopus laevis oocytes mediated [14C]uric acid uptake at 0.1 uM measured after 60 mins by liquid scintillation counter method relative to control; format: cell-based; settings: 1 h
Cytochrome P450 2C9 = Cytochrome P450 2C9 (Homo sapiens, UniProt P11712); assay: Inhibition of CYP2C9 (unknown origin); format: ADME
Sequence of Cytochrome P450 2C9 (P11712 whole entry): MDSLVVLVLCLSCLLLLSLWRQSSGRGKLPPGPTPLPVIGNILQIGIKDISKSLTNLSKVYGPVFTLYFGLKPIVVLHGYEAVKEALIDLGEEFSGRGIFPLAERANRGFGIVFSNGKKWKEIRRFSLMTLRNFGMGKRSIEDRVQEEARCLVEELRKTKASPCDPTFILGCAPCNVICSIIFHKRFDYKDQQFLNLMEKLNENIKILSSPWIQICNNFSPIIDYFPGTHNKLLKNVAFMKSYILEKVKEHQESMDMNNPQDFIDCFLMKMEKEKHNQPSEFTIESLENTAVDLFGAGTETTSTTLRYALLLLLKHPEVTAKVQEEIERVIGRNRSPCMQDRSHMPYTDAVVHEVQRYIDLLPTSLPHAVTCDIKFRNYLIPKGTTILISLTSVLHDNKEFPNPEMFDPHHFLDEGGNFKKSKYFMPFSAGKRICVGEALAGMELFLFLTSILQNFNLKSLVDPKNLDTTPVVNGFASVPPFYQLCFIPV

[9] = Oral bioavailability in rat at 0.3 mg/kg; format: ADME, organism-based; settings: in vivo
[10] = Cmax in rat at 0.3 mg/kg, iv; format: ADME, organism-based; design: route intravenous, dose 0.3 mg/kg; settings: in vivo
[11] = Cmax in rat at 0.3 mg/kg, po; format: ADME, organism-based; design: route oral, dose 0.3 mg/kg; settings: in vivo
[12] = Drug excretion in human urine assessed as excretion rate of glucuronide metabolite of phenols measured for 72 hrs by mass balance test; format: ADME, tissue-based
[13] = Uricosuric effect in Cebus monkey assessed as fractional plasma urate excretion at 5 mg/kg, po measured up to 4 hrs; format: functional; settings: time hrs <=4
[14] = target: T1, Solute carrier family 22 member 12; assay: Inhibition of human URAT1 expressed in Xenopus laevis oocytes assessed as inhibition of [14C]uric acid uptake measured after 60 mins by liquid scintillation counter method
[15] = AUC (0 to infinity) in rat at 0.3 mg/kg, iv; format: ADME, organism-based; design: time infinity, route intravenous, dose 0.3 mg/kg; settings: in vivo
[16] = AUC (0 to 24 hrs) in Cebus monkey at 5 mg/kg, po; format: ADME, organism-based; design: route oral, dose 5 mg/kg, time <=24; settings: in vivo
[17] = AUC (0 to infinity) in rat at 0.3 mg/kg, po; format: ADME, organism-based; design: time infinity, route oral, dose 0.3 mg/kg; settings: in vivo
[18] = Drug excretion in human urine assessed as excretion rate of sulfate metabolite of phenols measured for 72 hrs by mass balance test; format: ADME
[19] = Uricosuric effect in Cebus monkey assessed as fractional plasma urate excretion at 30 mg/kg, po measured up to 4 hrs; format: functional; settings: time hrs <=4
[20] = AUC (0 to 24 hrs) in Cebus monkey at 30 mg/kg, po; format: ADME, organism-based; design: route oral, dose 30 mg/kg, time <=24; settings: in vivo

Row | SMILES | inhibition at 10 µM [1] | IC50 [2] | IC50 [3] | inhibition at 100 µM [5] | dose excreted at 4 h [6] | Cmax [7] | further results
1 | N#Cc1cc(C(=O)N2CCc3ccccc32)cc(Cl)c1O | 38.2% | 14.7 µM | 31 µM |  |  |  | 
2 | O=c1[nH]c(=O)c2[nH]c(=O)[nH]c2[nH]1 [URIC ACID] |  |  |  |  |  |  | pKa [4]: 5.75
3 | Cc1c(C)n(C(=O)c2ccc(O)c(C#N)c2)c2ccccc12 | 52.1% | 10.8 µM | 3.6 µM |  |  |  | 
4 | N#Cc1cc(C(=O)N2CCc3ccccc32)cc(C#N)c1O | 26.3% | 83.9 µM |  | 47% |  |  | 
5 | N#Cc1cc(C(=O)N2CCc3ccccc32)ccc1O | 67.5% | 2.5 µM |  | 43% | 5.9% | 890 ng/mL | 
6 | CSc1cc(C(=O)N2CS(=O)(=O)c3ccccc32)cc(C#N)c1O | 57% | 7.1 µM |  | 21% | 9.4% | 1080 ng/mL | inhibition at 0.1 µM [8]: 44%
7 | N#Cc1cc(C(=O)N2CS(=O)(=O)c3ccccc32)cc(C(F)(F)F)c1O |  | > 100 µM |  | 12% |  |  | 
8 | N#Cc1cc(C(=O)N2CSc3ccccc32)cc(C(F)(F)F)c1O | 49% | 13.1 µM | 55 µM |  | 0.1% | 3150 ng/mL | inhibition at 0.1 µM [8]: 71%
9 | COc1cc(C(=O)N2CS(=O)(=O)c3ccccc32)cc(Cl)c1O |  | 4.3 µM |  | 49% | 0.1% | 1060 ng/mL | 
10 | O=C(c1cc(F)c(O)c(Cl)c1)N1CS(=O)(=O)c2ccccc21 |  | 33.9 µM | 63 µM |  | 4.3% | 7700 ng/mL | 
11 | CC(C)c1cc(C(=O)N2CS(=O)(=O)c3ccccc32)cc(C#N)c1O |  | 83.3 µM | 12 µM |  | 0.1% | 4460 ng/mL | 
12 | N#Cc1cc(C(=O)N2CS(=O)(=O)c3ccccc32)cc(C2CC2)c1O | 42% | 19.2 µM | 59 µM |  | 0.6% | 3810 ng/mL | IC50 (Cytochrome P450 2C9): 57 µM; inhibition at 0.1 µM [8]: 30%
13 | N#Cc1cc(C(=O)N2CCc3ccccc32)cc(C2CC2)c1O | 67.8% | 8.8 µM | 24 µM |  | 0.35% | 1360 ng/mL | 
14 | CCc1cc(C(=O)N2CS(=O)(=O)c3ccccc32)cc(C#N)c1O | 32% | > 100 µM | 37 µM |  | 1.7% | 4240 ng/mL | inhibition at 0.1 µM [8]: 36%
15 | CC(C)(C)c1cc(C(=O)N2CCc3ccccc32)cc(C#N)c1O | 32.4% | 31.6 µM | 6.6 µM |  |  |  | 
16 | N#Cc1cc(C(=O)N2CS(=O)(=O)c3ccccc32)cc(Cl)c1O | 25% | > 100 µM |  | 20% | 23% | 1350 ng/mL | inhibition at 0.1 µM [8]: 29%
17 | O=C(c1cc(Cl)c(O)c(Cl)c1)N1CS(=O)(=O)c2ccccc21 [DOTINURAD] | 81% | 6.8 µM | 27 µM |  | 1.1% | 9140 ng/mL | bioavailability [9]: 86.8%; Cmax [10]: 2400 ng/mL; Cmax [11]: 1090 ng/mL; Drug excretion [12]: 44.3%; Activity [13]: 16.5%; inhibition at 0.1 µM [8]: 78%; IC50 [14]: 0.0372 µM; AUC(0-inf) [15]: 6620 ng·h/mL; AUC(0-t) [16]: 109000 ng·h/mL; AUC(0-inf) [17]: 5740 ng·h/mL; Drug excretion [18]: 20%
18 | CSc1cc(C(=O)N2CS(=O)(=O)c3ccccc32)cc(Cl)c1O |  | 5.7 µM | 59 µM |  | 0.2% | 4640 ng/mL | 
19 | CSc1cc(C(=O)N2CCc3ccccc32)cc(C#N)c1O | 24.2% | > 100 µM | 40 µM |  |  |  | 
20 | CCc1oc2ccccc2c1C(=O)c1cc(Br)c(O)c(Br)c1 [BENZBROMARONE] | 51% |  | 3.1 µM |  | 0% | 4420 ng/mL | Activity [19]: 11.5%; pKa [4]: 5.17; AUC(0-t) [20]: 95200 ng·h/mL; inhibition at 0.1 µM [8]: 37%
21 | N#Cc1cc(C(=O)N2CCc3ccccc32)cc(C(F)(F)F)c1O | 30% | > 100 µM |  | 40% |  |  | 
22 | O=C(c1cc(Cl)c(O)c(C(F)(F)F)c1)N1CS(=O)(=O)c2ccccc21 |  | 2.6 µM | 18 µM |  | 0.1% | 6410 ng/mL | 
23 | COc1cc(C(=O)N2CCc3ccccc32)cc(C#N)c1O | 21.7% | > 100 µM |  | -10% |  |  | 
24 | COc1cc(C(=O)N2CS(=O)(=O)c3ccccc32)cc(C(F)(F)F)c1O |  | 17.8 µM |  | 47% | 0% | 3990 ng/mL | 
25 | N#Cc1cc(C(=O)N2CCc3ccccc32)cc(I)c1O | 65.1% | 5.3 µM | 53 µM |  | 0.02% | 5950 ng/mL | 
26 | C#Cc1cc(C(=O)N2CS(=O)(=O)c3ccccc32)cc(C#N)c1O |  | 3.2 µM |  | 13% | 12.4% | 1580 ng/mL | 
